Data reported in paper PMC12714101, “CD160-Derived Peptide as a Bidirectional Inhibitor Toward Immune Checkpoints BTLA/HVEM and HVEM/LIGHT” (Journal of Medicinal Chemistry, 2025).
Where a SMILES comes first, the peptide text is derived from it.

Target: T1, BTLA/HVEM complex (Homo sapiens, UniProt Q92956)
T1 construct: purchased ACROBiosystems HVM-H52E9 (HVEM-His); BTA-H5255 (BTLA-Fc)
T1 sequence (Q92956 39-202 limits assumed): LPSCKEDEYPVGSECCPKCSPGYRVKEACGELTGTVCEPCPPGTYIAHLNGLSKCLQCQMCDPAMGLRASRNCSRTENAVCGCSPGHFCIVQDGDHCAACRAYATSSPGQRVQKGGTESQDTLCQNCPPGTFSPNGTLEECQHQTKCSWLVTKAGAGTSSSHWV
Test: ELISA inhibition of BTLA/HVEM complex formation
Assay type: biochemical
Conditions: peptide 16.67 μM, immobilized HVEM-His, BTLA-Fc 5 μg/mL, PBS-T, 37 °C, mean of three independent experiments
Description: In the subsequent stage of the study, the potential of the obtained compounds to inhibit the interaction between BTLA and HVEM proteins was evaluated using ELISA, following the methodology described in our previous studies. , HVEM was immobilized on the plate and incubated with peptides at three different concentrations, followed by the addition of Fc-tagged BTLA. Detection was carried out using horseradish peroxidase (HRP) conjugated with anti-human IgG and 3,3′,5,5′-tetramethylbenzidine (TMB) as a substrate. Signal intensity was directly proportional to the amount of BTLA bound to HVEM and inversely proportional to the inhibitory activity of the tested peptides. As a control, BTLA and HVEM were incubated in the absence of peptides.
Recombinant human HVEM protein with a His tag was purchased from ACROBiosystems, Newark, DE, USA (no. HVM-H52E9). Recombinant human protein BTLA-Fc and LIGHT-Fc were also purchased from ACROBiosystems, Newark, DE, USA (no. BTA-H5255 and no. LIT-H5269).
ELISA was performed using transparent 96-well NUNC Maxisorp plates (Thermo Fisher Scientific, Waltham, MA, USA). In the first step, HVEM-His, dissolved in PBS at a concentration of 5 μg/mL (100 μL/well), was immobilized on the plate by overnight incubation at 4 °C. Wells were then blocked with 5% bovine serum albumin (BSA) in PBS containing 0.05% Tween 20 (PBS-T) (200 μL/well). Next, peptides dissolved in PBS-T at concentrations of 150, 50, and 16.67 μM were added to the wells (100 μL/well). Following this, BTLA-Fc in PBS-T at a concentration of 5 μg/mL (100 μL/well) was applied. In the next step, goat anti-human IgG antibody conjugated with the HRP (Bio-Rad Laboratories, Hercules, CA, USA) in PBS-T at a ratio of 1:30,000 (v/v) was added (100 μL/well). Colorimetric detection was performed by adding 100 μL of TMB substrate (Thermo Fisher Scientific, Waltham, MA, USA) to each well and incubating the plate in the dark. At each stage, plates were incubated at 37 °C with continuous shaking for 1 h (except TMB, which was incubated for 15 min). After each incubation, wells were washed five times with PBS-T. Absorbance was measured using an Infinite M200 Pro Reader (Tecan Group Ltd., Männedorf, Switzerland) at wavelengths of 650 nm (measurement wavelength) and 492 nm (reference wavelength). Inhibition assays for the HVEM/LIGHT complex were conducted using the same approach, except that LIGHT was used instead of BTLA. The BTLA/HVEM and HVEM/LIGHT complexes without peptides served as controls. Inhibition percentages were calculated based on the assumption that PBS-T has no effect on the formation of BTLA/HVEM or HVEM/LIGHT complexes. Each ELISA was conducted in at least three independent replicates. The data were analyzed using GraphPad Prism 8 software (San Diego, CA, USA).

CC[C@@H]1NC(=O)[C@@H](NC(=O)[C@H](CCC(N)=O)NC(=O)[C@H](Cc2ccc(O)cc2)NC(C)=O)CSSC[C@@H](C(=O)N[C@@H](Cc2c[nH]cn2)C(=O)N[C@@H](Cc2ccccc2)C(=O)N[C@@H](Cc2ccccc2)C(N)=O)NC(=O)[C@H](CCC(N)=O)NC(=O)[C@H](CC(C)C)NC(=O)[C@H](CCCNC(=N)N)NC(=O)[C@H]([C@@H](C)CC)NC(=O)CNC(=O)[C@H](CO)NC(=O)[C@H](CCCCN)NC(=O)[C@H](CCC(N)=O)NC(=O)[C@H](CO)NC(=O)[C@H](CCCNC(=N)N)NC(=O)[C@H](C)NC1=O [A5, CD160(110–128) ^(C113X,G125C)] (HELM PEPTIDE1{[ac].Y.Q.C.[Abu].A.R.S.Q.K.S.G.I.R.L.Q.C.H.F.F.[am]}$PEPTIDE1,PEPTIDE1,4:R3-17:R3$$$V2.0)
inhibition at 16.67 µM: 6.24%
